Assays:
HepG2 cells = test: Cell viability (MTT) assay, HepG2; type: cell-based; conditions: for anti-proliferation activity on HepG2 (in words): HepG2, 48 h
Protocol: (§1) To investigate the selectivity of these derivatives towards different tumor cell lines, we also selected HepG2 and osteosarcoma cell line SJSA-1 cells to evaluate the anti-proliferation activity of the derivatives. […] Except for compounds A2 and A11, the effects of other compounds on SJSA-1 were not strong.
(§2) The cell lines present in this study were obtained from Procell Life Science & Technology Co. Ltd. MCF-7, HepG2 and SJSA-1 cells were cultured in DMEM medium (DMEM, Gibco) supplemented with 10% fetal bovine serum (FBS, Gibco), 1% penicillin-streptomycin (Hyclone) at 37℃ in a humid environment with 5% CO2. HK-2 cells were cultured in DMEM/F12 (1:1) medium and placed in incubators in the same environment.
(§3) Cell viability was determined by MTT assay. MCF-7, HepG2, SJSA-1 and HK-2 cells (6 × 10^3 cells /well) were seeded in 96-well plates with serum-free medium for 24 h. […] After 48 or 72 h, 10 μL MTT (5 mg/mL, Beyotime) was added and incubated at 37 °C for 4 h. Then 100 μL of lysate was added. After complete dissolution of the crystal, the absorbance was measured at 540 nm and expressed as the average percentage of absorbance between treated and control cells. The value for control cells was set at 100%. Cell survival rate was calculated as the ratio of the absorbance of the cells and negative control after minus the blank absorbance respectively.

[1] = test system: osteosarcoma cell line SJSA-1; test: Cell viability (MTT) assay, SJSA-1; type: cell-based
Protocol: as §1, §2, §3

[2] = test system: MCF-7 breast cancer cells; test: Cell viability (MTT) assay, MCF-7; type: cell-based; conditions: for anti-proliferation activity on MCF-7 compared with GAA: MCF-7, 48 h
Protocol: MCF-7 is a commonly used tumor cell line.
as §2, §3

HK-2 cells = test: Cell viability (MTT) assay, HK-2 normal cells (cytotoxicity); type: cell-based
Protocol: as §2, §3

| SMILES | Viability of Cells (% of Control) (HepG2 cells; 25 µM) | Viability of Cells (% of Control) (HepG2 cells; 50 µM) | Viability of Cells (% of Control) ([1]; 50 µM) | Viability of Cells (% of Control) ([1]; 100 µM) | Viability of Cells (% of Control) ([2]; 25 µM) | Viability of Cells (% of Control) ([2]; 50 µM) | Viability of Cells (% of Control) ([2]; 100 µM) | melting point [°C] | Viability of Cells (% of Control) (HK-2 cells; 50 µM) | Viability of Cells (% of Control) (HK-2 cells; 100 µM) | anti-proliferation activity on HepG2 (in words) (HepG2 cells) | anti-proliferation activity on MCF-7 compared with GAA [2] | toxicity to HK2 cells (in words) (HK-2 cells) | inhibition at 50 µM (HepG2 cells; Homo sapiens, HepG2, 50 µM (printed: below 50 µM), 48 h, read-out: inhibition rate of HepG2) [%] | anti-proliferation activity on SJSA-1 (in words) ([1]; SJSA-1, 72 h) |
| --- | --- | --- | --- | --- | --- | --- | --- | --- | --- | --- | --- | --- | --- | --- | --- |
| Cc1ccc(CNC(=O)[C@H](C)CC(=O)C[C@@H](C)[C@H]2C[C@H](O)[C@@]3(C)C4=C(C(=O)C[C@]23C)[C@@]2(C)CCC(=O)C(C)(C)[C@@H]2C[C@@H]4O)cc1 [Compound A5, (4-methylbenzyl)-(7β,15α,25R)-7,15-Dihydroxy-3,11,23-Trioxolanost-8-en-26-oic Amide] | 78.5 ± 3.0 % of Control | 69.1 ± 1.9 % of Control | 75.0 ± 2.6 % of Control | 64.5 ± 1.2 % of Control | 115.0 ± 2.9 % of Control | 107.4 ± 6.7 % of Control | 99.5 ± 1.0 % of Control | 208.7 to 209 | 110.4 ± 13.1 % of Control | 97.0 ± 8.8 % of Control | – | – | – | – | – |
| CCN1CCN(C(=O)[C@H](C)CC(=O)C[C@@H](C)[C@H]2C[C@H](O)[C@@]3(C)C4=C(C(=O)C[C@]23C)[C@@]2(C)CCC(=O)C(C)(C)[C@@H]2C[C@@H]4O)CC1 [Compound A14, (4-Ethylpiperazin-1-yl)-(7β,15α,25R)-7,15-Dihydroxy-3,11,23-Trioxolanost-8-en-26-oic Amide] | 95.6 ± 1.9 % of Control | 99.3 ± 0.2 % of Control | 70.4 ± 1.6 % of Control | 47.3 ± 2.1 % of Control | 106.2 ± 4.7 % of Control | 102.2 ± 5.9 % of Control | 96.2 ± 5.0 % of Control | 198.5 to 199.4 | – | – | – | – | – | – | – |
| Cc1ccc(NC(=O)[C@H](C)CC(=O)C[C@@H](C)[C@H]2C[C@H](O)[C@@]3(C)C4=C(C(=O)C[C@]23C)[C@@]2(C)CCC(=O)C(C)(C)[C@@H]2C[C@@H]4O)cc1 [Compound A3, (4-Methylphenyl)-(7β,15α,25R)-7,15-Dihydroxy-3,11,23-Trioxolanost-8-en-26-oic Amide] | 90.1 ± 1.1 % of Control | 76.3 ± 1.1 % of Control | 85.3 ± 1.1 % of Control | 83.3 ± 3.0 % of Control | 110.9 ± 2.2 % of Control | 114.3 ± 1.2 % of Control | 78.7 ± 3.9 % of Control | 174.3 to 175.5 | – | – | – | – | – | – | – |
| C[C@H](CC(=O)C[C@@H](C)[C@H]1C[C@H](O)[C@@]2(C)C3=C(C(=O)C[C@]12C)[C@@]1(C)CCC(=O)C(C)(C)[C@@H]1C[C@@H]3O)C(=O)NCc1ccc(Cl)cc1 [Compound A7, (4-Chlorobenzyl)-(7β,15α,25R)-7,15-Dihydroxy-3,11,23-Trioxolanost-8-en-26-oic Amide] | 73.8 ± 1.2 % of Control | 53.4 ± 1.0 % of Control | 81.6 ± 2.8 % of Control | 77.1 ± 4.6 % of Control | 73.5 ± 4.0 % of Control | – | 75.1 ± 13.2 % of Control | 188.6 to 189.4 | 86.2 ± 3.7 % of Control | 81.3 ± 3.3 % of Control | potent anti-proliferation activity | significant anti-proliferation activities | some toxicity | – | – |
| C[C@H](CC(=O)C[C@@H](C)[C@H]1C[C@H](O)[C@@]2(C)C3=C(C(=O)C[C@]12C)[C@@]1(C)CCC(=O)C(C)(C)[C@@H]1C[C@@H]3O)C(=O)NCCc1ccc(Cl)cc1 [Compound A12, (4-Chlorophenethyl)-(7β,15α,25R)-7,15-Dihydroxy-3,11,23-Trioxolanost-8-en-26-oic Amide] | 29.1 ± 0.4 % of Control | 25.6 ± 0.8 % of Control | 73.5 ± 1.2 % of Control | 65.5 ± 1.5 % of Control | 119.0 ± 3.4 % of Control | 110.5 ± 6.0 % of Control | 102.9 ± 3.8 % of Control | 195.4 to 196.1 | 124.1 ± 2.6 % of Control | 111.2 ± 6.5 % of Control | – | – | – | 74.4 | – |
| CCCCNC(=O)[C@H](C)CC(=O)C[C@@H](C)[C@H]1C[C@H](O)[C@@]2(C)C3=C(C(=O)C[C@]12C)[C@@]1(C)CCC(=O)C(C)(C)[C@@H]1C[C@@H]3O [Compound A1, (n-butyl)-(7β,15α,25R)-7,15-Dihydroxy-3,11,23-Trioxolanost-8-en-26-oic Amide] | 90.5 ± 1.1 % of Control | 87.2 ± 3.1 % of Control | 87.9 ± 0.9 % of Control | 74.0 ± 3.8 % of Control | 96.6 ± 6.2 % of Control | 114.3 ± 1.2 % of Control | 78.7 ± 3.4 % of Control | 120.7 to 121.5 | – | – | – | – | – | – | – |
| C[C@H](CC(=O)C[C@@H](C)[C@H]1C[C@H](O)[C@@]2(C)C3=C(C(=O)C[C@]12C)[C@@]1(C)CCC(=O)C(C)(C)[C@@H]1C[C@@H]3O)C(=O)NCc1cc(Cl)cc(Cl)c1 [Compound A8, (3,5-Dichlorobenzyl)-(7β,15α,25R)-7,15-Dihydroxy-3,11,23-Trioxolanost-8-en-26-oic Amide] | 54.2 ± 2.0 % of Control | 48.1 ± 1.5 % of Control | 92.4 ± 1.4 % of Control | 80.4 ± 4.7 % of Control | 63.3 ± 8.3 % of Control | – | 39.4 ± 5.8 % of Control | 182.6 to 183.8 | 107.8 ± 14.3 % of Control | 91.0 ± 2.4 % of Control | potent anti-proliferation activity | significant anti-proliferation activities | – | – | – |
| C[C@H](CC(=O)C[C@@H](C)[C@H]1C[C@H](O)[C@@]2(C)C3=C(C(=O)C[C@]12C)[C@@]1(C)CCC(=O)C(C)(C)[C@@H]1C[C@@H]3O)C(=O)Nc1ccc(Cl)cc1 [Compound A4, (4-Chlorophenyl)-(7β,15α,25R)-7,15-Dhydroxy-3,11,23-Trioxolanost-8-en-26-oic Amide] | 87.7 ± 1.9 % of Control | 72.0 ± 1.9 % of Control | 83.9 ± 5.4 % of Control | 57.4 ± 4.2 % of Control | 116.4 ± 4.8 % of Control | 120.7 ± 2.0 % of Control | 108.9 ± 1.1 % of Control | 184.9 to 185.3 | – | – | – | – | – | – | – |
| C[C@H](CC(=O)C[C@@H](C)[C@H]1C[C@H](O)[C@@]2(C)C3=C(C(=O)C[C@]12C)[C@@]1(C)CCC(=O)C(C)(C)[C@@H]1C[C@@H]3O)C(=O)N1CCN(C)CC1 [Compound A13, (4-Methylpiperazin-1-yl)-(7β,15α,25R)-7,15-Dihydroxy-3,11,23-Trioxolanost-8-en-26-oic Amide] | 104.4 ± 2.0 % of Control | 99.3 ± 4.9 % of Control | 87.6 ± 3.8 % of Control | 77.6 ± 3.5 % of Control | 113.6 ± 2.1 % of Control | 107.3 ± 9.1 % of Control | 102.7 ± 3.5 % of Control | 173.2 to 174.9 | – | – | – | – | – | – | – |
| C[C@H](CC(=O)C[C@@H](C)[C@H]1C[C@H](O)[C@@]2(C)C3=C(C(=O)C[C@]12C)[C@@]1(C)CCC(=O)C(C)(C)[C@@H]1C[C@@H]3O)C(=O)NCCc1ccc(F)cc1 [Compound A11, (4-Fluorophenethyl)-(7β,15α,25R)-7,15-Dihydroxy-3,11,23-Trioxolanost-8-en-26-oic Amide] | 78.5 ± 3.0 % of Control | 69.1 ± 2.0 % of Control | 56.1 ± 8.7 % of Control | 41.9 ± 3.1 % of Control | 100.5 ± 2.5 % of Control | 101.8 ± 0.2 % of Control | 58.4 ± 5.5 % of Control | 188.1 to 189 | 89.8 ± 9.6 % of Control | 86.9 ± 2.7 % of Control | – | – | – | – | some selectivity for SJSA-1 |

Reference: article PMC10004777 (Molecules, 2023)
